Patent US6838237B2, “Antigenically reactive regions of the hepatitis a virus polyprotein” (The United States of America as represented by the …, priority 1996, dated 2005)
Values joined by “and” are separate entries in the source; they are usually repeats but may differ in a detail not shown here. Equal values may be shown once.

What was measured:
anti-HAV-negative sera = assay: EIA for anti-HAV: synthetic peptides reacted with anti-HAV-negative sera; format: binding, human; conditions: experiment 1: sera 1:100, cutoff P/N 3.0
Excerpt: (§1) All anti-HAV-positive and anti-HAV-negative sera were randomly selected from a collection reposited at the Centers for Disease Control and Prevention, Atlanta, Ga. Serum specimens were collected from anti-HAV-positive patients with acute liver disease. Anti-HAV-negative serum specimens were collected from normal blood donors. All sera were initially tested by commercially available kit for the presence of anti-HAV activity (HAVAB and HAVAB-M, Abbott Laboratories, Abbott Park, Ill.)
(§2) Synthetic peptides (110 ml) at a concentration of 10 mg/ml in 0.1 M phosphate-buffered saline (PBS), pH 7.5, were adsorbed to microtiter wells (Immulon II, Dynatech Laboratories, Inc.) at room temperature for 12 h. Sera were diluted in PBS containing 0.1% Tween 20 and 10% normal goat serum (PBS-T) and 100 ml were added to each well, incubated for 60 min at 37E C, and washed with PBS containing Tween-20. […] Two different cutoffs were established for experiments 1 and 2. In experiment 1, the cutoff, expressed as a P/N ratio and equal to 3.0, was statistically established as the mean of negative controls plus at least 3.5 standard deviations (SD) above the mean, where P represents the optical density value at 493 nm (OD493) of anti-HAV-positive specimens and N represents the optical density value of negative controls. In experiment 2, a different cutoff was used to ensure statistical reliability and accurate interpretation of positive results. In this case, in addition to anti-HAV-negative sera, two irrelevant synthetic peptides were used as supplemental negative controls to determine the degree of nonspecific binding of anti-HAV sera to synthetic peptides. One cutoff, expressed as a P/N ratio and equal to 3.0, corresponded to the mean of negative serum controls plus at least 3.5 SD above the mean. A second cutoff was also expressed as a P/N ratio, where P represents the optical density value at 493 nm (OD493) for HAV peptides immunoreacting with anti-HAV-positive specimens and N represents the optical density value obtained with the irrelevant peptides. The second cutoff was equal 2.0 and corresponded to the mean of OD values obtained with the irrelevant peptides plus at least 3.5 SD above the mean. Synthetic peptides were considered immunoreactive with anti-HAV serum specimens only when both cutoffs were satisfied.

anti-HAV-positive sera = assay: EIA for anti-HAV: synthetic peptides adsorbed to wells, reacted with anti-HAV-positive acute sera; format: binding, human; conditions: for Reactivity with acute sera (reactive/tested): experiment 1: sera 1:100, anti-human IgG-HRP, cutoff P/N 3.0; for Reactivity with acute sera (percent of sera reactive): experiment 1: sera 1:100, cutoff P/N 3.0; for P/N for acute sera (mean) / P/N for acute sera (range, in parentheses) / P/N for acute sera (individual values): experiment 1; for P/N for acute sera (mean) / P/N for acute sera (range, in parentheses): OD493 positive/negative ratio of reactive sera; for P/N for acute sera (individual values): single sera listed with semicolon
Excerpt: as §1, §2

Sequence	Reactivity with negative sera (reactive/tested) (anti-HAV-negative sera)	Reactivity with acute sera (reactive/tested) (anti-HAV-positive sera)	Reactivity with acute sera (percent of sera reactive) (anti-HAV-positive sera)	P/N for acute sera (mean) (anti-HAV-positive sera)	P/N for acute sera (range, in parentheses) (anti-HAV-positive sera)	P/N for acute sera (individual values) (anti-HAV-positive sera)	percent of (IgM) anti-HAV-positive sera immunoreactive with peptide (anti-HAV-positive sera)	immunoreactivity with anti-HAV-positive sera (in words) (anti-HAV-positive sera)
HTYARFGIEIQVQINPTPFQ [YK-1216]	4/46	23/41	56.1%	5.3	(3.42-10.79)			
IKVIPVDPYFFQMTNTNPDQ [YK-1244]	0/46	6/41	14.6%	4.2	(3.55-5.2)			
INNVNLYYVFSKIFGKSPVF [YK-1424]	0/27	3/41	7.3%	6.69	(3.48-10.83)			
INPTPFQQGGLICAMVPGDQ [YK-1217]	0/46	4/41	9.8%	4.03	(3.94-4.12)			
ITTIEDPVLAKKVPETFPEL [YK-1271]	1/46	4/41	9.8%	4.97	(3.33-7.76)			
KCITALASICQMFCFWRGDL [YK-1247]	0/48	9/46	19.6%	3.96	(3.06-4.49)			
KINLADRMLGLSGVQEIKEQ [YK-1331]	0/51	13/48	27.1%	5.71	(3.71-10.3)			
KNDGTTVDLTVDQAWRGKGE [YK-1389]	0/27	3/41	7.3%	10.33	(5.53-18.26)			
KNPHNDMLNVNLAKTNDAIK [YK-1363]	0/41	5/41	12.2%	5.96	(5.31-6.33)			
KTMIRFGDVGLDLDFSAFDA [YK-1418]	1/27	6/41	14.6%	4.5	(3.35-6.21)			
KVNFPHGMLDLEEIAANSKD [YK-1327]	1/51	15/48	31.3%	6.16	(3.28-9.76)			
LAKTNDAIKDMSCVDLIMDG [YK-1364]	1/41	4/41	9.8%	4.9	(3.5-6.18)			
LDENGLLLGVHPRLAQRILF [YK-1407]	0/27	2/41	4.9%			3.43 and 3.98		
LGMTATSADKNVPQLKPVSE [YK-1429]	0/27	5/41	12.2%	10.25	(4.92-27.38)			
LGSINQAMVTRCEPVVCYLY [YK-1347]	2/51	13/48	27.1%	4.16	(3.18-6.2)		27.1%	
LNMASLEEKGRHFSSPFIIA [YK-1357]	1/51	4/48	8.3%	4.49	(4.06-4.85)			

Sequence	Reactivity with negative sera (reactive/tested) (anti-HAV-negative sera)	Reactivity with acute sera (reactive/tested) (anti-HAV-positive sera)	Reactivity with acute sera (percent of sera reactive) (anti-HAV-positive sera)	P/N for acute sera (mean) (anti-HAV-positive sera)	P/N for acute sera (range, in parentheses) (anti-HAV-positive sera)	P/N for acute sera (individual values) (anti-HAV-positive sera)	percent of (IgM) anti-HAV-positive sera immunoreactive with peptide (anti-HAV-positive sera)	immunoreactivity with anti-HAV-positive sera (in words) (anti-HAV-positive sera)
LSFSCYLSVTEQSEFYFPRA [YK-1307]	0/51	6/48	12.5%	5.88	(4.17-7.64)			
LYNEQFAVQGLLRYHTYARF [YK-1215]	0/46	10/41	24.4%	5.29	(3.41-8.83)			not found immunoreactive
MEEKATYVHKKNDGTTVDLT [YK-1388]	0/27	4/41	9.8%	4.29	(3.99-4.7)			
MLSKYSLPIVEEPEDYKEAS [YK-1399]	1/27	5/41	12.2%	6.86	(4.05-16.46)			
MSRIAAGDLESSVDDPRSEE [YK-1312]	2/51	13/48	27.1%	8.7	(4.44-25.9)			
NIGTGTSAYTSLNVLARFTD [YK-1224]	0/46	9/41	22.0%	3.53	(3.09-4.17)			
NILKDNQQKIEKAIEEADEF [YK-1341]	1/51	3/48	6.3%	5.23	(3.44-8.26)			
NPSPKTVYVKEAIDRRLHFK [YK-1360]	0/46	4/41	9.8%	4.08	(3.68-4.71)			
NRGKMDVSGVQAPVGAITTI [YK-1268]	2/48	7/46	15.2%	9.1	(6.07-15.25)			
PLNSNAMLSTESMMSRIAAG [YK-1310]	0/51	3/48	6.3%			3.68 and 5.23		
PQLKPVSELTFLKRSFNLVE [YK-1431]	1/27	4/41	9.8%	14.13	(3.17-27.53)			
PYKELRLEVGKQRLKYAQEE [YK-1316]	2/51	20/48	41.7%	8.71	(3.5-17.8)			
QFPFNASDSVGQQIKVIPVD [YK-1241]	0/46	1/41	2.4%	3.56				Very weakly reactive
QNVPDPQVGITTMKDLKGKA [YK-1266]	0/48	14/46	30.4%	8.25	(3.27-18.30)			
QRLKYAQEELSNEVLPPPRK [YK-1317]	1/66	55/66	83.3%	19.35	(3.47-125.8)			
